Laboratory results taken from PubChem BioAssay AID602217 (Sanford-Burnham Center for Chemical Genomics, 2012).
Active and inactive are the calls of the source.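 The calls were made as follows: active = IC50 at or below a set limit; inactive = the rest.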

tested on: HL-1 cardiomyocytes, 2-deoxyglucose injury, ATPLite luminescence, 2 h; experiment: 2-DG-induced HL-1 ATP loss suppression – cell-based, ATPLite luminescence, dose response (AID 602217);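 also: cells kept in glucose-free DMEM during the 2-deoxyglucose injury; potency of protection where actives preserve ATP signal against 2-deoxyglucose stress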

SMILES | IC50
O=C(CNC(=O)c1nc[nH]c1C(=O)NCC(=O)OCc1ccccc1)OCc1ccccc1 | > 79 µM (inactive)
CCOc1ccc(-n2cc(-c3ccccc3)c3c(N4CCOCC4)ncnc32)cc1 | 7.65 µM
COc1ccc(Nc2nc(C(=O)N3CCc4cc(OC)c(OC)cc4C3)cs2)cc1 | 42 µM (inactive)
CCOc1ccc2nc(NC(=O)CN3CCC(n4nnc5cc(F)ccc54)CC3)sc2c1 | 9.48 µM
N#C/C(=C\Nc1ccc2c(c1)OCCO2)c1nc2ccccc2[nH]1 | > 79 µM (inactive)
COCCCN(Cc1ccco1)C(=O)Cn1ncc2c([nH]c3ccccc32)c1=O | 41.4 µM (inactive)
COc1cc2[nH]c(=O)n3nc(-c4ccccc4)nc3c2cc1OC | 35.3 µM (inactive)
CC1(c2ccccc2)NC(=O)N(CC(=O)Nc2cccc(/C=C/c3ccccn3)c2)C1=O (stereo not given) | > 79 µM (inactive)
CC(=O)c1cccc(Nc2nc3ccccc3n3cnnc23)c1 | > 79 µM (inactive)
CCOc1ccccc1NC(=O)c1oc2ccccc2c1NC(=O)C1CCCO1 (stereo not given) | > 79 µM (inactive)
COc1cccc(Nc2nc3ccccc3n3cnnc23)c1 | > 79 µM (inactive)
O=C(c1ccc(-c2nc3ccccc3s2)o1)N1CCN(c2ccccc2O)CC1 | > 79 µM (inactive)
O=C(Nc1ccccc1)c1nc[nH]c1C(=O)NCCNC(=O)c1[nH]cnc1C(=O)Nc1ccccc1 | 4.82 µM
COc1ccc(/C=N/NC(=O)c2ccc(COc3cccc4cccnc34)cc2)cc1OC | > 79 µM (inactive)
Nc1c(C(=O)N/N=C/c2cccnc2)oc2nc(-c3ccccc3)cc(-c3ccco3)c12 | > 79 µM (inactive)
CCCn1nc(C(=O)Nc2nc(-c3ccccn3)cs2)c2ccccc2c1=O | > 79 µM (inactive)
COc1ccc(C(=O)Nc2cccc(NC(=O)c3ccc(OC)c(OC)c3)n2)cc1OC | 11.2 µM
COc1cccc(/C=N/NC(=O)c2oc3nc(-c4ccccc4)cc(-c4ccco4)c3c2N)c1 | 4.97 µM

SMILES | IC50
COc1ccc(-c2cc(NC=O)c3ncc(-c4ccc(C(C)=O)cc4)n3c2)cn1 | 22.2 µM (inactive)
Cc1nc(N2CCN(c3ccccn3)CC2)c2c(C)c(C(=O)Nc3ccc(F)cc3)sc2n1 | > 79 µM (inactive)
CC12C=CC(=O)CC1CCC1C2CCC2(C)C(O)C(O)CC12 (stereo not given) | > 79 µM (inactive)
CC(=O)Nc1cc(-c2cccc(NS(C)(=O)=O)c2)cn2c(-c3cccc(C(C)=O)c3)cnc12 | 36.4 µM (inactive)
CCOc1cc(/C=C(\C#N)C(=O)Nc2ccc(S(N)(=O)=O)cc2)ccc1OCCN1CCOCC1 | > 79 µM (inactive)
C=CC[C@@H](CC(=O)NCCO)C(=O)NC[C@H](OC(=O)[C@@H](CC=C)Cc1ccc(F)cc1)c1ccccc1 | 42.7 µM (inactive)
COc1ccccc1NC(=O)c1cc(-c2ccc(OC)c(OC)c2)nc2ccccc12 | 15.6 µM
CCOC(=O)C1CCN(c2cc3c(cc2NC(=O)c2ccccc2Cl)n(C)c(=O)n3C)CC1 | > 79 µM (inactive)
O=C(Nc1cc(S(=O)(=O)N2CCOCC2)ccc1N1CCCCC1)c1cc(-c2ccccn2)nc2ccccc12 | 21 µM (inactive)
COc1cc(-c2cc(NC(C)=O)c3ncc(-c4cc(OC)c(OC)c(OC)c4)n3c2)cc(OC)c1OC | 6.4 µM
COc1ccc(-c2cc(NC(C)=O)c3ncc(-c4cccc(C(C)=O)c4)n3c2)cc1OC | > 79 µM (inactive)
COc1cccc(C(=O)Nc2c(C(N)=O)oc3ccccc23)c1 | 33.6 µM (inactive)
COc1cc(/C=N/NC(=O)c2ccccc2)ccc1OS(=O)(=O)c1ccccc1 | > 79 µM (inactive)
COc1ccc(-c2ccc3c(c2)S(=O)(=O)c2cccc(C(=O)NC[C@@H]4CCCO4)c2C3=O)cc1OC | > 79 µM (inactive)
CCc1nc2ccc(C(=O)Nc3cc(-c4ccccc4)ccc3OC)cn2c1N(C)Cc1nccs1 | > 79 µM (inactive)
O=C1OCCN1C(=O)[C@H]1[C@H](c2ccc([N+](=O)[O-])cc2)C(c2ccc(F)cc2)=NN1c1ccc(Br)cc1 | > 79 µM (inactive)
Cc1ccc(C(C(=O)NCc2ccccc2)N(Cc2ccco2)C(=O)c2snc(C(N)=O)c2N)o1 (stereo not given) | 23.9 µM (inactive)
